Key:
E. coli EndoIV = E. coli EndoIV (Escherichia coli, UniProt P0A6C1); conditions: for EndoIV removal of phosphotriester blocking moiety from primer DNA extended with the nucleotide: large quantities of E. coli EndoIV, 37° C. or 55° C., extended incubation times
Method: Primer DNA with either a 3′ PO4PrOH block (−ve and EndoIV) or a free 3′OH (+ve) was radiolabelled and bound to an A template strand. […] Aliquots were removed at 0, 5, 15, 30 and 60 min for quenching and gel analysis (left to right respectively). “+ve” is the time course for unblocked DNA plus EndoIV, “EndoIV” is blocked DNA plus E. coli EndoIV and “−ve” is blocked DNA without E. coli EndoIV.
Similar reactions to those described above in the context of FIG. 7 were conducted, but the blocked extension products were generated using Pol 217 to incorporate various phosphotriester nucleotides onto the primer DNA. […] Phosphotriester blocking moieties tested included pppT3′PO4(Et)2, pppT3′PO4(Et)(Pr-Cap), pppT3′PO4(Et)(PrOH), pppT3′PO4MeBu and pppT3′PO4(Et)(SSOH).
A ^33P biotinylated 10 A template hairpin (62mer) was bound to magnetic streptavidin beads (4 pmoles) (1) and incubated with Pol217 (15 μg/ml) in Pol buffer and 10 μM pppT3′PO4MeBu for 10 mins at 55° C. […] The DNA was then removed to a magnet and washed twice in 1×B+W buffer (5 mM TRIS pH 7.5, 0.5 mM EDTA, 1M NaCl) and then washed twice in Ada buffer (50 mM TRIS pH 8.3, 1 mM EDTA, 3 mM DTT, 1 mg/ml BSA). The DNA was then incubated in Ada buffer with Ada protein (225 pmoles) at 37° C. for 3 h (3). The DNA was then removed to a magnet and washed twice in 1×B+W and then twice in NEB 3 buffer and then divided into 2 aliquots. To one aliquot (4) (2 pmoles) was added Pol 217 (15 μg/ml), E. coli EndoIV 10 U and FFT (5 μM) in NEB 3 buffer to a total volume of 100 μl. The sample was incubated at 37° C. and at time points of 0, 3, 10, 30, 60 and 120 mins a 5 μl sample was removed and quenched for 12% gel analysis. After 120 mins 10 μl of 100 μM dNTP was added to the remaining sample to chase the primer to the end (if not blocked) and an aliquot was taken and quenched after a further 20 mins at 37° C. […] The second aliquot (2 pmoles) was treated similarly, but no E. coli Endo IV was added to the reaction mixture (w/o EndoIV).
Eight pmoles of biotinylated 10 A hairpin DNA (62mer) bound to magnetic streptavidin beads (1) was incubated with Pol 217 (15 μg/ml) in Pol buffer with 10 μM pppT3′PO4(Et)(SSOH) in 200 μl at 55° C. for 15 mins (2). Then 2 μl of 100 mM tri(hydroxylpropyl)phosphine (THP) was added to the tube and the samples incubated for a further 5 mins at 55° C. […] The DNA was then removed to a magnet and washed twice in 1×B+W and twice in NEB 3 buffer. The DNA was then divided into two aliquots. To the first aliquot (4 pmoles) was added 4 U E. coli EndoIV, 15 μg/ml Pol 217, 10 μM pppT3′PO4MeBu in 100 μl of NEB3 buffer (4) and the other aliquot (4 pmoles) had the same additions but no EndoIV (w/o EndoIV). At time points of 0, 1, 5, 10, 30, 60 and 120 mins and sample was removed and quenched for 12% gel analysis.

[1] = test system: Pol 217, E. coli Endo IV, Ada protein; test: Single pot multi-cycle extension with Pol 217, Ada protein and Endo IV (gel); assay type: biochemical; conditions: 37° C., 10 μM nucleotide
Method: A tube was incubated at 37° C. containing Pol 217 (15 μg/ml-16.5 pmoles), E. coli Endo IV (10 U), Ada protein (1000 pmoles) in 100 μl of 50 mM TRIS pH 8.0, 1 mg/ml BSA, 50 mM NaCl, 10 mM MgSO4 with 2 pmoles of primer (21mer) annealed to 10 A template DNA. After a time zero aliquot was removed and quenched for gel analysis, the reaction was started by the addition of 10 μM pppT3′PO4MeBu. At time points of 10, 30, 60, 120 and 240 minutes an aliquot was removed and quenched for gel analysis. Negative controls are shown where one protein was left out of the mixture in turn. A positive control for incorporation is shown of 10 μM FFT.

Pol 217 = Pol 217 catalyzed primer extension: incorporation of blocked nucleotide analog into primer DNA (urea gel analysis); assay type: biochemical; conditions: for incorporation of phosphodiester blocked nucleotides by Pol 217: nucleotide 10 μM
Method: Pol 217 (15 μg/ml) was incubated at 30° C. in Pol buffer (50 mM TRIS pH 7.5, 0.05% Tween 20, 6 mM MgSO4, 1 mM EDTA, 50 mM NaCl) with 20 nM DNA (P21 primer annealed to Diff template AG). A time zero aliquot was taken for each concentration and then pppT3′PO4(EO2 was added at 10, 5, 2 or 1 μM final concentration to start the reaction. Tubes are incubated at 30° C. and aliquots were taken at 0.33, 0.66, 1, 2, 5, and 15 mins from the 4 reaction tubes for quenching and 15% urea acrylamide gel analysis. 1 mM dNTPs were added to the remaining 4 reaction tubes and after a further 10 mins an aliquot was taken for gel analysis (chase).
Pol 217 was tested in Pol buffer at 55° C.
Incorporation of gamma hexynyl-pppT3′PO4Me2 was tested in Pol buffer at 65° C. with 10 μM nucleotide and 15 μg/mlpolymerase (Pol217 or Bst). A time zero sample was removed before initiation of the reaction with nucleotide and aliquots were quenched for gel analysis at 0.33, 0.66, 1, 2, 5 and 15 minutes.

Vent exo- = Vent exo- (Thermococcus litoralis, UniProt P30317, D141A/DEL1082-1471/DEL495-1032/E143A); test: Vent exo- polymerase primer extension with blocked nucleotide analog (gel analysis); assay type: biochemical; conditions: conditions tested; chase lane showed active polymerase
Sequence of Vent exo- (P30317 other isoform, or with tags, fused parts or gaps D141A/E143A/DEL495-1032/DEL1082-1471): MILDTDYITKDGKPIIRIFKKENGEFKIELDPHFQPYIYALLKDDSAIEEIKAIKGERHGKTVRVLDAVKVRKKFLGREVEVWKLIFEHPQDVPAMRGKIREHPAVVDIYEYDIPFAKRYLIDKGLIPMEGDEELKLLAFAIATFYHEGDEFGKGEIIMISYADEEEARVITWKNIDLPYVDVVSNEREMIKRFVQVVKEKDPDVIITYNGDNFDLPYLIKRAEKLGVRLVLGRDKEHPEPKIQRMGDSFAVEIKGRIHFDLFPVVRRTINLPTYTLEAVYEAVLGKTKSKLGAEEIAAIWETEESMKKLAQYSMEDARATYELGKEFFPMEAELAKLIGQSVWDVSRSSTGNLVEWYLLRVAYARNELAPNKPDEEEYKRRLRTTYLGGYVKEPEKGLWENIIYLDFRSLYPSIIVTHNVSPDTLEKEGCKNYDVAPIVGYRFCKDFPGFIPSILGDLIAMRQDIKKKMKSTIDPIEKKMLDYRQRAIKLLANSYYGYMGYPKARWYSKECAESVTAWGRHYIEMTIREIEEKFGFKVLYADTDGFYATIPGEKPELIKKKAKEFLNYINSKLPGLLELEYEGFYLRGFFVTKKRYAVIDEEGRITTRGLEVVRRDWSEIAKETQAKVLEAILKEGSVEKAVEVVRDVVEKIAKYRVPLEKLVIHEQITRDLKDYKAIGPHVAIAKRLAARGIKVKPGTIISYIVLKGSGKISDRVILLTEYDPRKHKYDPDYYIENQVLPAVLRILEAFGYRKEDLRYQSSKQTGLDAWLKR

Klenow = target: T1, Klenow (Escherichia coli, UniProt P00582); test: Klenow polymerase primer extension with blocked nucleotide analog (gel analysis); assay type: biochemical; conditions: conditions tested; chase lane showed active polymerase
T1 construct: Bst, Vent exo- and Klenow polymerases were tested
T1 sequence (P00582 324-928): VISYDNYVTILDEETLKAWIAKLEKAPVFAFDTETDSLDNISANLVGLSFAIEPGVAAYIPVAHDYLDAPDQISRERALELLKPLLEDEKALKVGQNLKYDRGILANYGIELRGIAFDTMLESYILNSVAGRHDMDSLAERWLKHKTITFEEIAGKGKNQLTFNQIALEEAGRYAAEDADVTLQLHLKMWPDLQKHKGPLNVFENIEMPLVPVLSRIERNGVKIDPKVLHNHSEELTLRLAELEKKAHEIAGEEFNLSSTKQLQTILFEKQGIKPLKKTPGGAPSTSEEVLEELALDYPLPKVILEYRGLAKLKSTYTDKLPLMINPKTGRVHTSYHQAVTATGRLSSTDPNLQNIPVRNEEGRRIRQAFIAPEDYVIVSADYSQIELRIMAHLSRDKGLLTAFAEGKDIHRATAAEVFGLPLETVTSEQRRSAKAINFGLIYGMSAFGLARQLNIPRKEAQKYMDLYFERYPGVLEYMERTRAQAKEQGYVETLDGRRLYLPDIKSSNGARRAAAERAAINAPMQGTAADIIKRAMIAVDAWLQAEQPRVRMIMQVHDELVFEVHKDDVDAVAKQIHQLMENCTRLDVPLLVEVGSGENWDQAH

Bst = target: T2, Bst (Geobacillus stearothermophilus, UniProt P52026); test: Bst polymerase primer extension with blocked nucleotide analog (gel analysis); assay type: biochemical
T2 sequence (P52026 1-876): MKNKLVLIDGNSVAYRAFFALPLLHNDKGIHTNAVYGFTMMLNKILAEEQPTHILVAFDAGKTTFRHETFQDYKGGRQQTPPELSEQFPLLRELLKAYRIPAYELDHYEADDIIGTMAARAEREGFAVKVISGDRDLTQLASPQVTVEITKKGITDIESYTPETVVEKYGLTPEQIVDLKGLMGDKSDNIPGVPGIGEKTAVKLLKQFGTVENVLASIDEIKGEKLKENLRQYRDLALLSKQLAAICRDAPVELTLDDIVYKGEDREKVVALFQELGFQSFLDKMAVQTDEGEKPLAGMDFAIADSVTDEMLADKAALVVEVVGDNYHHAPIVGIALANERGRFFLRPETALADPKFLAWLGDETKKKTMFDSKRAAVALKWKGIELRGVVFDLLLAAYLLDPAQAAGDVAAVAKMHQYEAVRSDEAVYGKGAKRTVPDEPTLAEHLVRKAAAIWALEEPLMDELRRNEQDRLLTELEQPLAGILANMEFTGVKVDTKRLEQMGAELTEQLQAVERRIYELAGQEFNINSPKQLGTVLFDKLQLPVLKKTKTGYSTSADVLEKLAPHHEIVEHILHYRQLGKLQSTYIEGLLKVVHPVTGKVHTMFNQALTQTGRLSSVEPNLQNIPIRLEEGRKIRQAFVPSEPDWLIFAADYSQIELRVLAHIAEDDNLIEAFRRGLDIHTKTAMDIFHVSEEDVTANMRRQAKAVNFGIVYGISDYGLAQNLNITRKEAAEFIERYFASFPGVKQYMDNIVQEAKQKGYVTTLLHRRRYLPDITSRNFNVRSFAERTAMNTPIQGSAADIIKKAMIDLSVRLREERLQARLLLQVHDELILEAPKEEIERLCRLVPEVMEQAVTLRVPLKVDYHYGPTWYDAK
Method: Incorporation of gamma hexynyl-pppT3′PO4Me2 was tested in Pol buffer at 65° C. with 10 μM nucleotide and 15 μg/mlpolymerase (Pol217 or Bst). A time zero sample was removed before initiation of the reaction with nucleotide and aliquots were quenched for gel analysis at 0.33, 0.66, 1, 2, 5 and 15 minutes. After 15 minutes, 5 μl of 100 μM dNTPs was added to the remaining reaction tubes (˜20 μl) and incubation continued for 10 mins before a chase aliquot was taken for gel analysis. Thus, for each polymerase there was a time course of 0, 0.33, 0.66, 1, 2, 5, 15 mins and chase shown from left to right across the gel in FIG. 13.

Pol 427 = Pol 427 catalyzed primer extension: incorporation of blocked nucleotide analog (gel analysis); assay type: biochemical; conditions: Pol buffer, 37° C., 1 h, Pol 427 30 μg/ml
[2] = Fluorescence emission of quencher/dye labelled nucleotide; assay type: physicochemical
Method: The fluorescence emission of an approx. 4 μM solution of the quencher/dye labelled nucleotide 22, a 4 μM solution of Atto532 dye and an equimolar mixture of Atto532 dye and quencher labelled nucleotide 21 (4 μM) were measured in 10 mM Tris buffer pH 8.0, between 500 nm and 700 nm (excitation wavelength: 532 nm) (FIG. 23). The fluorescence of the nucleotide 22 was approximately 1500-fold lower than that of the free dye in solution, and approximately 1100-fold lower than the equimolar solution of the free dye and the quencher labelled nucleotide 21.

Endonuclease IV = Endonuclease IV (Escherichia coli, UniProt P0A6C1); conditions: 0.1 mM nucleotide, 500 units/mL Endonuclease IV, 37° C., pH 7.9, up to 3 days
Source text: Aliquots were taken at set time points and analyzed by HPLC chromatography.

[3] = approx. 4 μM, 10 mM Tris pH 8.0, excitation 532 nm

CCCCOP(=O)(OC)O[C@H]1C[C@H](n2cc(C)c(=O)[nH]c2=O)O[C@@H]1COP(=O)(O)OP(=O)(O)OP(=O)(O)O (stereo partly drawn) [pppT3′PO4MeBu, 5′ triphosphate 3′ (O-methyl, O′-butyl phosphate) thymidine]
EndoIV unblocking of extended primer after Ada protein treatment (E. coli EndoIV; Ada protein 37° C. 3 h, then E. coli EndoIV 10 U, Pol 217, FFT, 37° C., 0-120 mins): unblocked by EndoIV
EndoIV removal of phosphotriester blocking moiety from primer DNA extended with the nucleotide (E. coli EndoIV): failed to allow subsequent incorporation
length of extension product in single pot reaction, all three proteins present ([1]; 10-240 minutes): gradually increased over the time course from n+1 to n+2, then n+3, then n+4
incorporation in single pot reaction in the absence of Ada or EndoIV ([1]; no Ada or no EndoIV): a single incorporation event occurred
incorporation into 10 A hairpin DNA on streptavidin beads by Pol 217 (Pol 217; Pol buffer, 55° C., 10 μM nucleotide, 10-15 mins): converted to n+1

CCOP(=O)(OCC)O[C@H]1C[C@H](n2cc(C)c(=O)[nH]c2=O)O[C@@H]1COP(=O)(O)OP(=O)(O)OP(=O)(O)O [pppT3′PO4(Et)2, 5′-triphosphate 3′-(O,O′-diethyl phosphate) thymidine]
incorporation by Vent exo- polymerase (Vent exo-): did not show any incorporation bands
incorporation by Klenow polymerase (Klenow): did not show any incorporation bands
incorporation by Bst polymerase (Bst; conditions tested, chase lane showed active polymerase): did not show any incorporation bands
EndoIV removal of phosphotriester blocking moiety from primer DNA extended with the nucleotide (E. coli EndoIV): failed to allow subsequent incorporation
extension of primer after chase with natural dNTPs (3′ block) (Pol 217; 30° C., 1 mM dNTPs chase, 10 mins): creates a 3′ blocked primer
incorporation into primer DNA by Pol 217 (n+1 band) (Pol 217; 30° C., Pol buffer, nucleotide 10, 5, 2 or 1 μM, 20 nM DNA, 0-15 min): extension by one base
time to complete incorporation by Pol217 (Pol 217; 65° C., incorporation buffer, 10 μM nucleotide): ≤ 20 s

CCOP(=O)(O)O[C@H]1C[C@H](n2cc(C)c(=O)[nH]c2=O)O[C@@H]1COP(=O)(O)OP(=O)(O)OP(=O)(O)O [pppT3′PO4Et, 5′ triphosphate 3′ (O-ethyl phosphate) thymidine]
incorporation of phosphodiester blocked nucleotides by Pol 217 (Pol 217; Pol buffer, 55° C.): low level incorporation was observed

CCOP(=O)(OCc1cc2c(cc1[N+](=O)[O-])OCO2)O[C@H]1C[C@H](n2cc(C)c(=O)[nH]c2=O)O[C@@H]1COP(=O)(O)OP(=O)(O)OP(=O)(O)O (stereo partly drawn) [pppT3′PO4(Et)(NPIP), 5′-triphosphate 3′-(O-ethyl, O′-(6-nitropiperonyl)phosphate) thymidine]
incorporation into primer by Pol 427 (Pol 427): converted to n+1

5′-(γ-(BHQ2-peg3)triphosphate) 3′-(O-(12-(Atto532)amidododecyl)phosphate)thymidine [nucleotide 22]
fluorescence lower than that of the free dye (Atto532) in solution [2, 3]: approximately 1500 fold
fluorescence lower than the equimolar solution of free dye and quencher labelled nucleotide 21 [2, 3]: approximately 1100 fold
quenching of fluorescence emission by BHQ2 ([2]; dye and quencher both on the nucleotide): > 99%

CCOP(=O)(OCCCO)OC1CC(n2cc(C)c(=O)[nH]c2=O)OC1COP(=O)(O)OP(=O)(O)OP(=O)(O)O (stereo not drawn) [pppT3′PO4(Et)(PrOH)]
EndoIV removal of phosphotriester blocking moiety from primer DNA extended with the nucleotide (E. coli EndoIV): failed to allow subsequent incorporation

CCOP(=O)(O)OC1CC(n2cc(C)c(=O)[nH]c2=O)OC1COP(=O)(O)O (stereo not drawn) [pT-3′PO4Et, 5′ monophosphate T-3′PO4Et]
removal of 3′ phosphodiester blocking moiety from free nucleotide by EndoIV (HPLC) (Endonuclease IV): No deblocked pT-3′PO4Et was observed even after 3 days

Cc1cn(C2CC(OP(=O)(O)O)C(COP(=O)(O)OP(=O)(O)OP(=O)(O)O)O2)c(=O)[nH]c1=O (stereo not drawn) [pppT 3′PO4]
incorporation of phosphodiester blocked nucleotides by Pol 217 (Pol 217; Pol buffer, 55° C.): incorporation was observed but the band on the gel chased away

5′-(γ-(BHQ2-peg3)triphosphate) 3′-(O-(12-aminododecyl)phosphate)thymidine [nucleotide 21]
quenching of free Atto532 dye by quencher labelled nucleotide in equimolar mixture ([2]; 4 μM each, 10 mM Tris pH 8.0, excitation 532 nm): does not quench efficiently

Cc1cn(C2CC(OP(=O)(O)OCCCO)C(COP(=O)(O)OP(=O)(O)OP(=O)(O)O)O2)c(=O)[nH]c1=O (stereo not drawn) [pppT3′PO4PrOH]
incorporation of phosphodiester blocked nucleotides by Pol 217 (Pol 217; Pol buffer, 55° C.): substantial incorporation was not observed

C#CCCCCOP(=O)(O)OP(=O)(O)OP(=O)(O)OCC1OC(n2cc(C)c(=O)[nH]c2=O)CC1OP(=O)(OC)OC (stereo not drawn) [gamma hexynyl-pppT3′PO4Me2, 5′-(γ-(5-hexynyl)triphosphate) 3′-(O,O′-dimethyl phosphate) thymidine]
band for extended primer with Bst (Bst; Pol buffer, 65° C., 10 μM nucleotide): absent
incorporation by Pol 217 and chase (Pol 217; Pol buffer, 65° C., 10 μM nucleotide, 0-15 min then dNTP chase): an incorporation band of n+1 was generated over time which did not chase away

— US20130085073A1, “CONTINUOUS EXTENSION AND DEBLOCKING IN REACTIONS FOR NUCLLEIC ACIDS SYNTHESIS AND SEQUENCING” (ILLUMINA CAMBRIDGE LIMITED, priority 2011, published 2013)
